What was measured:
IgE antibodies = assay: Effect on IgE antibody production in ovalbumin-sensitized mice (ELISA); type: in vivo, BALB/c line male mice; conditions: for IgE antibody yield (% control): 7 times, blood 14 days after sensitization
Procedure: That is, 4 mg of aluminum hydroxide to which 10 μg of ovalbumin has been adsorbed was intraperitoneally administered to 5 individuals per group of BALB/c line male mice (body weight, 21 - 25 g) to effect sensitization. Immediately after the sensitization, a 5% acacia aqueous solution containing a varied concentration of tofisopam or a 5% acacia aqueous solution containing no tofisopam (control) was administered orally once a day, 7 times in total. After 14 days of the sensitization, blood samples were collected to measure produced amounts of various types of immunoglobulin by means of enzyme-linked immunosorbent assay (ELISA). Production yield of IgE antibodies was measured in the following manner. That is, a blood plasma sample was added to immobilized anti-mouse IgE antibodies to allow IgE to be linked, followed by the reaction with biotin-labeled anti-mouse IgE antibodies and avidin-labeled horseradish peroxidase, and then the amount of produced IgE antibodies was measured based on the horseradish peroxidase activity as a marker (Men'eki-to-[…], vol.15, pp.211 - 216, 1988).

IgG₁ antibodies = assay: Effect on IgG₁ antibody production in ovalbumin-sensitized mice (ELISA); type: in vivo, BALB/c line male mice; conditions: for IgG₁ antibody yield (% control): 7 times, blood 14 days after sensitization
Procedure: (§1) That is, 4 mg of aluminum hydroxide to which 10 µg of ovalbumin has been adsorbed was intraperitoneally administered to 5 individuals per group of BALB/c line male mice (body weight, 21 - 25 g) to effect sensitization. Immediately after the sensitization, a 5% acacia aqueous solution containing a varied concentration of tofisopam or a 5% acacia aqueous solution containing no tofisopam (control) was administered orally once a day, 7 times in total. After 14 days of the sensitization, blood samples were collected to measure produced amounts of various types of immunoglobulin by means of enzyme-linked immunosorbent assay (ELISA). Production yields of IgG₁ and IgM antibodies were measured in the following manner. That is, a blood plasma sample was added to immobilized anti-mouse IgG₁ or IgM antibodies to allow IgG₁ antibodies or IgM antibodies to be linked, followed by the reaction with horseradish peroxidase-labeled anti-mouse IgG₁ antibodies or horseradish peroxidase-labeled anti-mouse IgM antibodies, and then the amount of produced IgG₁ or IgM antibodies was measured based on the horseradish peroxidase activity as a marker.

IgM antibodies = assay: Effect on IgM antibody production in ovalbumin-sensitized mice (ELISA); type: in vivo, BALB/c line male mice; conditions: for IgM antibody yield (% control): 7 times, blood 14 days after sensitization
Procedure: as §1

rat experimental asthma = assay: Rat experimental asthma, airway resistance by over flow technique; type: in vivo, Wister line male rats
Procedure: That is, 2 x 10¹⁰ cells of inactivated Bordetella pertussis and 1 mg of ovalbumin were respectively administered intraperitoneally and intramuscularly to 5 individuals per group of Wister line male rats (body weight, 194 - 210 g) to effect sensitization. Immediately after the sensitization, a 5% acacia aqueous solution containing a varied concentration of tofisopam or a 5% acacia aqueous solution containing no tofisopam (control) was administered orally once a day, 14 times in total.
After 14 days of the sensitization, ovalbumin was administered to the sensitized rats intravenously at a dose of 0.5 mg/kg, and the increasing degree of airway resistance was measured by means of the over flow technique (Arch. Exp. Pathol. Pharmak., vol.195, pp.71 - 74, 1974). The thus obtained inhibition rate of airway contraction, when the result of the control test is defined as 100, is shown in Table 4.

[1] = test system: psychogenic bronchial asthma; conditions: of 26 cases; with simultaneous β₂ stimulant and theophylline preparation; cited from earlier work
bronchial asthma = conditions: 16 cases of bronchial asthma patients; cited from earlier work
chronic urticaria [2] = conditions: of 14 cases; with antihistaminic drug, Chinese orthodox medicine and the like; cited from earlier work
chronic urticaria [3] = conditions: of 2 cases; cited from earlier work
[4] = in vivo; cited from earlier work
[5] = 100 mg/kg/day orally once a day
[6] = 300 mg/kg/day orally once a day
[7] = 100 or 300 mg/kg/day orally for 7 days

## CCC1C(C)=NN=C(c2ccc(OC)c(OC)c2)c2cc(OC)c(OC)cc21 (stereo not drawn) [Tofisopam, 1-(3,4-dimethoxyphenyl)-5-ethyl-7,8-dimethoxy-4-methyl-5H-2,3-benzodiazepine]
IgE antibodies; [5]
  IgE antibody yield (% control): 66 % control
IgE antibodies; [6]
  IgE antibody yield (% control): 56 % control
IgE antibodies; Mus musculus, po, 168 h, 100 mg/kg/day orally for 7 days
  inhibition at 100 mg/kg: ~34%
IgE antibodies; Mus musculus, po, 168 h, 300 mg/kg/day orally for 7 days
  inhibition at 300 mg/kg: ~44%
IgG₁ antibodies; [5]
  IgG₁ antibody yield (% control): 113 % control
IgG₁ antibodies; [6]
  IgG₁ antibody yield (% control): 111 % control
IgG₁ antibodies; [7]
  influence upon the production of IgG₁ antibodies: hardly exerts influence
IgM antibodies; [5]
  IgM antibody yield (% control): 97 % control
IgM antibodies; [6]
  IgM antibody yield (% control): 87 % control
IgM antibodies; [7]
  influence upon the production of IgM antibodies: hardly exerts influence
Rat experimental asthma; 100 mg/kg/day orally for 14 days
  airway reaction: can inhibit the airway reaction
Rat experimental asthma; 100 mg/kg/day orally once a day, 14 times, ovalbumin 0.5 mg/kg intravenously 14 days after sensitization
  Inhibition rate (%) of airway contraction: 27%
[1]
  cases improved: one
Bronchial asthma
  efficacy in objective findings: 25%
  efficacy in subjective symptoms: 50%
Chronic urticaria [2]
  cases improved: 8
Chronic urticaria [3]
  cases improved significantly: 1
[4]
  acute, subacute and chronic toxicities: confirmed safety of the compound
